In US9493432B2, “Cyclopentylbenzamide derivatives and their use for the treatment of psychotic and cognitive disorders” (Takeda Pharmaceutical Company Limited, priority 2013, dated 2016) one finds IC50 data, which are given here for 29 compounds.

pIC50: −log10 of the molar value.

One test has as its target human orexin receptor 1 (Homo sapiens (Human), UniProt O43613). Put plainly: Orexin antagonist activity, intracellular calcium FLIPR assay (orexin receptor 1). It is filed as cell-based. Particulars: RBL-2H3 cells stably expressing human orexin receptor 1; Ca2+ dye FLIPR; compound 15 minutes before orexin-A at approximately 80% maximal response; read-out: Human Orexin1R IC50. How it is done: (§1) Orexin antagonist activity was determined by measuring changes in intracellular calcium levels using a Ca^2+ sensitive fluorescent dye. The changes in fluorescent signal were monitored by Fluorescent Imaging Plate Reader (FLIPR™) technology available from Molecular Devices, LLC, U.S.A. Orexin mediated increases in intracellular Ca^2+ concentration were readily detected upon activation with orexin-A. Twenty-four hours prior to the assay, RBL-2H3 cells stably expressing either human orexin receptor 1 or human orexin receptor 2 were seeded in cell culture medium in black, clear-bottom 384-well plates (commercially available from Corning Inc., U.S.A.) and grown overnight at 37° C., 5% CO2. On the day of the assay, cell culture media was removed and cells were loaded with Calcium 5 Dye (commercially sold by Molecular Devices, LLC, U.S.A.) for 1 hour at 37° C., 5% CO2. Test compounds (at 10 point half log concentration response curves from 10 μM) were added to cells for 15 minutes prior to the addition of orexin-A to all wells, to achieve a final concentration that produces approximately an 80% maximal response. The IC50 values were determined from ten point concentration response curves. Curves were generated using the average of two wells for each data point.

The next test concerns the target human orexin receptor 2 (Homo sapiens (Human), UniProt O43614). Put plainly: Orexin antagonist activity, intracellular calcium FLIPR assay (orexin receptor 2). It is filed as cell-based. To be noted: RBL-2H3 cells stably expressing human orexin receptor 2; Ca2+ dye FLIPR; compound 15 minutes before orexin-A at approximately 80% maximal response; read-out: Human Orexin2R IC50. How it is done: as §1

Sequence of human orexin receptor 1 (O43613 whole entry): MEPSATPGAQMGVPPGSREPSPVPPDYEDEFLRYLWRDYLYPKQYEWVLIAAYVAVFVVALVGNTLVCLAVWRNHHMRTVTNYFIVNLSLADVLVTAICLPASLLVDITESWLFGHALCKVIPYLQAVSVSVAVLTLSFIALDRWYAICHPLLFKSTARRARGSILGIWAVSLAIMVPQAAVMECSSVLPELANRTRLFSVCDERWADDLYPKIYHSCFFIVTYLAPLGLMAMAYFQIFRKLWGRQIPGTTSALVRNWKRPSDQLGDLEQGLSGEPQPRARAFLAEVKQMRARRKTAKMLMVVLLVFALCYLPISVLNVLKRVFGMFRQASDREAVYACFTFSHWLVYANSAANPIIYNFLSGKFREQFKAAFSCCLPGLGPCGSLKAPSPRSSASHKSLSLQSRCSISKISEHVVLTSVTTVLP
Sequence of human orexin receptor 2 (O43614 whole entry): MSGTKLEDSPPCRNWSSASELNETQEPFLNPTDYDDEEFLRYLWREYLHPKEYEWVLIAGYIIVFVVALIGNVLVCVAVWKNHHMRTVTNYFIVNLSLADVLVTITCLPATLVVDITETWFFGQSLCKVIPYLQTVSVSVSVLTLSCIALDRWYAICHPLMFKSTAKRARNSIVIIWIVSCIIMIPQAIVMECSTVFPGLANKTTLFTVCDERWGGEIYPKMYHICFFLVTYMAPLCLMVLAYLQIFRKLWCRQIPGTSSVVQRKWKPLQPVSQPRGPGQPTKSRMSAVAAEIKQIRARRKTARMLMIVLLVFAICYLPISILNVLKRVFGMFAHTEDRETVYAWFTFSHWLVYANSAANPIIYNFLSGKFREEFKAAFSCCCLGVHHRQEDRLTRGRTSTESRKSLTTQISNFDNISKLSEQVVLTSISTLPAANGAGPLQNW

Turning to `O=C(N[C@H]1CCC[C@@H]1Nc1nc2ccc(F)cc2s1)c1ccccc1-n1cccn1` [Example 35, N-[(1S,2S)-2-[(6-Fluoro-1,3-benzothiazol-2-yl)amino]cyclopentyl]-2-(1H-pyrazol-1-yl)benzamide], the pIC50 was 8.17 at human orexin receptor 1 and 5.37 at human orexin receptor 2.
Turning to `CCOc1cccc(OCC)c1C(=O)N[C@H]1CCC[C@H]1Nc1nc2ccccc2o1` [Example 18, N-[(1S,2R)-2-[(1,3-Benzoxazol-2-yl)amino]cyclopentyl]-2,6-diethoxy-benzamide], the pIC50 is 7.60 at human orexin receptor 1 and 6.34 on human orexin receptor 2.
Take `O=C(N[C@H]1CCC[C@@H]1Nc1nc2cc(Cl)ccc2s1)c1ccccc1-n1nccn1` [Example 89, N-[(1S,2S)-2-[(5-Chloro-1,3-benzothiazol-2-yl)amino]cyclopentyl]-2-(2H-1,2,3-triazol-2-yl)benzamide]: the pIC50 on human orexin receptor 1 was 7.57; on human orexin receptor 2, 5.27.
Turning to `O=C(N[C@H]1CCC[C@@H]1Nc1nc2c(Cl)cncc2s1)c1ccccc1-n1nccn1` [Example 96, N-[(1S,2S)-2-({7-Chloro-[1,3]thiazolo[5,4-c]pyridin-2-yl}amino)cyclopentyl]-2-(2H-1,2,3-triazol-2-yl)benzamide], the figures for the pIC50 on human orexin receptor 1 and at human orexin receptor 2 were 6.32 and less than 5.00, respectively.
As to `Cc1ccc(-n2nccn2)c(C(=O)N[C@H]2CCC[C@@H]2Nc2nc3ccccc3s2)c1` [Example 19, N-[(1S,2S)-2-[(1,3-Benzothiazol-2-yl)amino]cyclopentyl]-5-methyl-2-(2H-1,2,3-triazol-2-yl)benzamide], the pIC50 at human orexin receptor 1 is 7.82; at human orexin receptor 2, 5.14.
Regarding `O=C(NC1COCC1Nc1nc2ccc(F)cc2s1)c1ccccc1-n1nccn1` (single isomer, unassigned) [Example 100, trans-N-{4-[(6-Fluoro-1,3-benzothiazol-2-yl)amino]oxolan-3-yl}-2-(2H-1,2,3-triazol-2-yl)benzamide], the pIC50 on human orexin receptor 1 was 7.66; on human orexin receptor 2, less than 5.00.
As for `O=C(NC1CCC[C@@H]1Nc1nc2ccc(F)cc2s1)c1c(Cl)cccc1Cl` (stereo in doubt) [Example 52, 2,6-Dichloro-N-[(1S,2S)-2-[(6-fluoro-1,3-benzothiazol-2-yl)amino]-cyclopentyl]benzamide], the pIC50 at human orexin receptor 1 was 6.57.
With `Cc1ccc(-n2nccn2)c(C(=O)N[C@H]2CCC[C@@H]2Nc2nc3ccc(F)cc3s2)c1` [Example 16, N-[(1S,2S)-2-[(6-Fluoro-1,3-benzothiazol-2-yl)amino]cyclopentyl]-5-methyl-2-(2H-1,2,3-triazol-2-yl)benzamide], the pIC50 at human orexin receptor 1 was 7.89; at human orexin receptor 2, 5.70.
For the compound `O=C(N[C@H]1CCC[C@@H]1Nc1nc2cc(F)ccc2s1)c1ccccc1-n1nccn1` [Example 92, N-[(1S,2S)-2-[(5-Fluoro-1,3-benzothiazol-2-yl)amino]cyclopentyl]-2-(2H-1,2,3-triazol-2-yl)benzamide], the pIC50 on human orexin receptor 1 is 7.85; at human orexin receptor 2, 5.07.
For the compound `Cc1cccc(C(=O)N[C@H]2CCC[C@@H]2Nc2nc3ccc(F)cc3s2)c1` [Example 57, N-[(1S,2S)-2-[(6-Fluoro-1,3-benzothiazol-2-yl)amino]cyclopentyl]-3-methylbenzamide], the pIC50 on human orexin receptor 1 was 6.11.
Turning to `COc1cccc(OC)c1C(=O)NC1CCCC1Cc1ccc2ccccc2n1` (stereo not shown) [Example 98, 2,6-Dimethoxy-N-[2-(quinolin-2-ylmethyl)cyclopentyl]benzamide], the pIC50 on human orexin receptor 1 was 6.51; at human orexin receptor 2, 5.68.
Consider `Cc1ccc(-n2ccnn2)c(C(=O)N[C@H]2CCC[C@@H]2Nc2nc3ccc(F)cc3s2)c1` [Example 38, N-[(1S,2S)-2-[(6-Fluoro-1,3-benzothiazol-2-yl)amino]cyclopentyl]-5-methyl-2-(1H-1,2,3-triazol-1-yl)benzamide], for which the results for the pIC50 at human orexin receptor 1 and at human orexin receptor 2 were 7.89 and less than 5.00, respectively.
In the same order, the values of `Cc1ccccc1C(=O)NC1CCC[C@@H]1Nc1nc2ccc(F)cc2s1` (stereo in doubt) [Example 51, N-[(1S,2S)-2-[(6-Fluoro-1,3-benzothiazol-2-yl)amino]cyclopentyl]-2-methylbenzamide] are 6.60 and 5.40.
Regarding `O=C(N[C@H]1CCC[C@@H]1Nc1nc2c(F)cccc2s1)c1ccccc1-n1nccn1` [Example 94, N-[(1S,2S)-2-[(4-Fluoro-1,3-benzothiazol-2-yl)amino]cyclopentyl]-2-(2H-1,2,3-triazol-2-yl)benzamide], the pIC50 was 7.52 on human orexin receptor 1 and less than 5.00 on human orexin receptor 2.
`COc1cccc(OC)c1C(=O)N[C@@H]1CCC[C@H]1Nc1nc2ccc(Cl)cc2s1` [Example 14, N-[(1R,2R)-2-[(6-Chloro-1,3-benzothiazol-2-yl)amino]cyclopentyl]-2,6-dimethoxybenzamide]: the pIC50 was 6.00 on human orexin receptor 1 and 6.17 on human orexin receptor 2.
In the same order, the values of `Cc1nnc(-c2ccccc2C(=O)N[C@H]2CCC[C@@H]2Nc2nc3ccc(F)cc3s2)o1` [Example 72, N-[(1S,2S)-2-[(6-Fluoro-1,3-benzothiazol-2-yl)amino]cyclopentyl]-2-(5-methyl-1,3,4-oxadiazol-2-yl)benzamide] are 7.85 and less than 5.00.
Taken in the same sequence, the figures for `CN(C(=O)c1cc(F)ccc1-n1nccn1)[C@H]1CCC[C@@H]1Nc1nc2ccc(F)cc2s1` [Example 81, 5-Fluoro-N-[(1S,2S)-2-[(6-fluoro-1,3-benzothiazol-2-yl)amino]cyclopentyl]-N-methyl-2-(2H-1,2,3-triazol-2-yl)benzamide] were 9.00 and 6.08.
As to `O=C(N[C@H]1CCC[C@@H]1Nc1nc2ccc(F)cc2s1)c1c(F)cccc1-n1nccn1` [Example 69, 2-Fluoro-N-[(1S,2S)-2-[(6-fluoro-1,3-benzothiazol-2-yl)amino]cyclopentyl]-6-(2H-1,2,3-triazol-2-yl)benzamide], the pIC50 is 7.82 on human orexin receptor 1 and 5.49 at human orexin receptor 2.
Taken in the same sequence, the figures for `CN(C(=O)c1ccccc1-n1cccn1)[C@H]1CCC[C@@H]1Nc1nc2ccc(F)cc2s1` [Example 79, N-[(1S,2S)-2-[(6-Fluoro-1,3-benzothiazol-2-yl)amino]cyclopentyl]-N-methyl-2-(1H-pyrazol-1-yl)benzamide] were 9.00 and 5.96.
For the compound `O=C(N[C@H]1CCC[C@@H]1Nc1nc2ccc(F)cc2s1)c1ccccc1C1CC1` [Example 58, 2-Cyclopropyl-N-[(1S,2S)-2-[(6-fluoro-1,3-benzothiazol-2-yl)amino]-cyclopentyl]benzamide], the pIC50 on human orexin receptor 1 is 6.06.
As for `O=C(N[C@H]1CCC[C@@H]1Nc1nc2ccc(F)cc2s1)c1cc(F)ccc1-n1ccnn1` [Example 45, 5-Fluoro-N-[(1S,2S)-2-[(6-fluoro-1,3-benzothiazol-2-yl)amino]cyclopentyl]-2-(1H-1,2,3-triazol-1-yl)benzamide], at human orexin receptor 1, the pIC50 was 7.10.
In the case of “5-Methyl-N-((1S,2S)-2-(quinoxalin-2-ylamino)cyclopentyl)-2-(2H-1,2,3-triazol-2-yl) benzamide [Example 21]”, the pIC50 on human orexin receptor 2 was 5.29.
Regarding `O=C(NC1CC(F)(F)CC1Nc1nc2ccc(Cl)cc2s1)c1ccccc1-n1nccn1` (single isomer, unassigned) [Example 105, N-{2-[(6-Chloro-1,3-benzothiazol-2-yl)amino]-4,4-difluorocyclopentyl}-2-(2H-1,2,3-triazol-2-yl)benzamide], at human orexin receptor 2, the pIC50 is 5.45.
For the compound `COc1cccc(C(=O)N[C@H]2CCC[C@@H]2Nc2nc3ccc(F)cc3s2)c1` [Example 56, N-[(1S,2S)-2-[(6-Fluoro-1,3-benzothiazol-2-yl)amino]cyclopentyl]-3-methoxybenzamide], the pIC50 on human orexin receptor 1 was 6.27.
On the same count and under the same terms, to `O=C(N[C@H]1CCC[C@@H]1Nc1nc2ccc(F)cc2s1)c1cc(F)ccc1-c1ncccn1` [Example 42, 5-Fluoro-N-[(1S,2S)-2-[(6-fluoro-1,3-benzothiazol-2-yl)amino]cyclopentyl]-2-(pyrimidin-2-yl)benzamide] belongs 7.62.
In the case of `O=C(NC1CC(F)(F)CC1Nc1nc2ccc(Cl)cc2s1)c1ccccc1-n1nccn1` (single isomer, unassigned) [Example 106, N-{2-[(6-Chloro-1,3-benzothiazol-2-yl)amino]-4,4-difluorocyclopentyl}-2-(2H-1,2,3-triazol-2-yl)benzamide], on human orexin receptor 2, the pIC50 is 6.36.
For the compound `Cc1ccc(-n2nccn2)c(C(=O)NC2CCCC2Cc2nc3ccc(Cl)cc3s2)c1` (stereo not shown) [Example 33, N-{2-[(6-Chloro-1,3-benzothiazol-2-yl)methyl]cyclopentyl}-5-methyl-2-(2H-1,2,3-triazol-2-yl)benzamide], on human orexin receptor 1, the pIC50 is 7.29.
For the compound `O=C(N[C@H]1CCC[C@@H]1Nc1nc2ccc(F)cc2s1)c1ccccc1OC(F)F` [Example 55, 2-(Difluoromethoxy)-N-[(1S,2S)-2-[(6-fluoro-1,3-benzothiazol-2-yl)amino]-cyclopentyl]benzamide], at human orexin receptor 1, the pIC50 is 6.33.
In the case of `O=C(N[C@H]1CCC[C@@H]1Nc1nc2ccc(Cl)cc2s1)c1ccccc1-n1nccn1` [Example 91, N-[(1S,2S)-2-[(6-Chloro-1,3-benzothiazol-2-yl)amino]cyclopentyl]-2-(2H-1,2,3-triazol-2-yl)benzamide], the pIC50 at human orexin receptor 2 is 5.33.
